For the test, the target named is T1, Androgen Receptor (AR) protein (Homo sapiens, UniProt P10275, T878A).
T1 construct: endogenous in cells; host or cells: LNCaP
Kind of test: Androgen Receptor (AR) protein degradation assay in LNCaP cells, western blotting. The format is cell-based. Conditions: 20 h; for inhibition at 0.01 µM: 0.01 μM compound; for inhibition at 0.1 µM: 0.1 μM compound; for inhibition at 1 µM: 1 μM compound; for inhibition at 10 µM: 10 μM compound. An outline of the steps:
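AR protein level was detected by western blot (ECL) against GAPDH or β-actin controls, with 8 μg lysate protein loaded per lane after BCA quantification. Lysates came from LNCaP cells exposed to test compound for 20 h, following 3 days of growth in RPMI/10% FBS.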
(Immunoblotting shows a protein as a band on a membrane.)

T1 sequence (P10275 whole entry T878A): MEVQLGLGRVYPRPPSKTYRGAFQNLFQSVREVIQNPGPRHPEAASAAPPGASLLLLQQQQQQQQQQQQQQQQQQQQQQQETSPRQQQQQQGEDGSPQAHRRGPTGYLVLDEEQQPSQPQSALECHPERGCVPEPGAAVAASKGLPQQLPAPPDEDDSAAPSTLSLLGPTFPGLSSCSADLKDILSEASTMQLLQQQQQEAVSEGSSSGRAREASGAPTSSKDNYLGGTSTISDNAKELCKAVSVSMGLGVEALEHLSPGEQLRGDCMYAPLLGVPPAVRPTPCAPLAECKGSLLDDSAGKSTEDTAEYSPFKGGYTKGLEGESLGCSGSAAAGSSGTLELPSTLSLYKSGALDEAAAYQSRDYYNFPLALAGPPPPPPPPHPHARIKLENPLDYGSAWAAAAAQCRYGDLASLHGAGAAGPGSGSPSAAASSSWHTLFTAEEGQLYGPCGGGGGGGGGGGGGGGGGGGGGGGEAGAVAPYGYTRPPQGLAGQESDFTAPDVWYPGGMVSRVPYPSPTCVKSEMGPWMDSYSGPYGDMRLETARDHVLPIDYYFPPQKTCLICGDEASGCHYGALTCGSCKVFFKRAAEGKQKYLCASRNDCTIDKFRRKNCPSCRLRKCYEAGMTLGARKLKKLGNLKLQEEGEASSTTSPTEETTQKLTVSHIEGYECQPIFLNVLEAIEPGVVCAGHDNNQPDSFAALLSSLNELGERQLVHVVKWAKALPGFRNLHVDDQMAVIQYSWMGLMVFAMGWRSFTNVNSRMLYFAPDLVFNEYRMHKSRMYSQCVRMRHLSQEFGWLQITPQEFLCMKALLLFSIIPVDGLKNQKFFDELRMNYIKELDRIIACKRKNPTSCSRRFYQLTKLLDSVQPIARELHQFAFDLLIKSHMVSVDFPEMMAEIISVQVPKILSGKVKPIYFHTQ
T1 sequence (Q96SW2 whole entry partner): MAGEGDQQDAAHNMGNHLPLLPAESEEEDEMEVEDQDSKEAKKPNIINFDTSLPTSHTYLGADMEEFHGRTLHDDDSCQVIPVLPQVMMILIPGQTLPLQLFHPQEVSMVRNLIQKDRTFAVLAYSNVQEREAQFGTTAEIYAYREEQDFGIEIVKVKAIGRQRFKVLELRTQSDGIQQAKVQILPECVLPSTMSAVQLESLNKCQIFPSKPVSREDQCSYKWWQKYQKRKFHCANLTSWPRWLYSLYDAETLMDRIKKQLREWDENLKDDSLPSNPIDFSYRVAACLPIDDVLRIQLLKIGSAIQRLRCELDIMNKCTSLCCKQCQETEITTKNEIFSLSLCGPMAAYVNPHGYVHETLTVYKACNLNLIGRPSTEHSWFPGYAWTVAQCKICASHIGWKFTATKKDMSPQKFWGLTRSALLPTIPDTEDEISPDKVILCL

For orientation: inhibition means the relative decrease from the control value, in per cent. The compound `COc1ccc(C(=O)N2CC3(CCN(CC4CCN(c5ccc(NC(=O)C6CCN(c7ccc(C#N)c(C(F)(F)F)c7)CC6)nc5)CC4)CC3)C2)cc1N1CCC(=O)NC1=O` [Example 65, 1-(4-cyano-3-(trifluoromethyl)phenyl)-N-(5-(4-((2-(3-(2,4-dioxotetrahydropyrimidin-1(2H)-yl)-4-methoxybenzoyl)-2,7-diazaspiro[3.5]nonan-7-yl)methyl)piperidin-1-yl)pyridin-2-yl)piperidine-4-carboxamide] registered an inhibition at 0.01 µM of 55%, an inhibition at 0.1 µM of 80%, an inhibition at 1 µM of 82% and an inhibition at 10 µM of 63%.
The compound `N#Cc1ccc(N2CCC(C(=O)Nc3ccc(N4CCC(CN5CC6(C5)CN(c5ccc7c(c5)C(=O)N(C5CCC(=O)NC5=O)C7=O)C6)CC4)cn3)CC2)cc1C(F)(F)F` (stereo not shown) [Example 66, 1-(4-cyano-3-(trifluoromethyl)phenyl)-N-(5-(4-((6-(2-(2,6-dioxopiperidin-3-yl)-1,3-dioxoisoindolin-5-yl)-2,6-diazaspiro[3.3]heptan-2-yl)methyl)piperidin-1-yl)pyridin-2-yl)piperidine-4-carboxamide] displayed an inhibition at 0.01 µM of 75.5%, an inhibition at 0.1 µM of 95.5%, an inhibition at 1 µM of 97% and an inhibition at 10 µM of 94%.
With `N#Cc1ccc(N2CCC(C(=O)Nc3ccc(N4CCC(CN5CC6(C5)CN(c5ccc7c(c5)C(=O)N(C5CCC(=O)NC5=O)C7=O)C6)CC4)cn3)CC2)cc1Cl` (stereo not shown) [Example 67, 1-(3-chloro-4-cyanophenyl)-N-(5-(4-((6-(2-(2,6-dioxopiperidin-3-yl)-1,3-dioxoisoindolin-5-yl)-2,6-diazaspiro[3.3]heptan-2-yl)methyl)piperidin-1-yl)pyridin-2-yl)piperidine-4-carboxamide], the inhibition at 0.01 µM stood at 46%, the inhibition at 0.1 µM came to 90%, 1 µM produced 88% inhibition and the inhibition at 10 µM was found to be 86%.
For `N#Cc1ccc(N2CCC(C(=O)Nc3ccc(N4CCC(CN5CCC6(CC5)CCN(c5ccc7c(c5)C(=O)N(C5CCC(=O)NC5=O)C7=O)CC6)CC4)cn3)CC2)cc1C(F)(F)F` (stereo not shown) [Example 68, 1-(4-cyano-3-(trifluoromethyl)phenyl)-N-(5-(4-((9-(2-(2,6-dioxopiperidin-3-yl)-1,3-dioxoisoindolin-5-yl)-3,9-diazaspiro[5.5]undecan-3-yl)methyl)piperidin-1-yl)pyridin-2-yl)piperidine-4-carboxamide], the inhibition at 0.01 µM turned out to be 66%, the inhibition at 0.1 µM was determined as 91%, at 1 µM the inhibition was 90% and 10 µM produced 85% inhibition.
In turn, `N#Cc1ccc(N2CCC(C(=O)Nc3ccc(N4CCC(CN5CCC6(CC5)CCN(c5ccc7c(c5)C(=O)N(C5CCC(=O)NC5=O)C7=O)CC6)CC4)cn3)CC2)cc1Cl` (stereo not shown) [Example 69, 1-(3-chloro-4-cyanophenyl)-N-(5-(4-((9-(2-(2,6-dioxopiperidin-3-yl)-1,3-dioxoisoindolin-5-yl)-3,9-diazaspiro[5.5]undecan-3-yl)methyl)piperidin-1-yl)pyridin-2-yl)piperidine-4-carboxamide] displayed an inhibition at 0.01 µM of 40%, an inhibition at 0.1 µM of 83%, an inhibition at 1 µM of 85% and an inhibition at 10 µM of 82%.
In the case of `N#Cc1ccc(N2CCC(C(=O)Nc3ccc(N4CCC(CN5CCN(C6CCN(c7ccc8c(c7)C(=O)N(C7CCC(=O)NC7=O)C8=O)CC6)CC5)CC4)cn3)CC2)cc1C(F)(F)F` (stereo not shown) [Example 70, 1-(4-cyano-3-(trifluoromethyl)phenyl)-N-(5-(4-((4-(1-(2-(2,6-dioxopiperidin-3-yl)-1,3-dioxoisoindolin-5-yl)piperidin-4-yl)piperazin-1-yl)methyl)piperidin-1-yl)pyridin-2-yl)piperidine-4-carboxamide], the inhibition at 0.01 µM was 85%, the inhibition at 0.1 µM is 99%, the inhibition at 1 µM was determined as 99% and the inhibition at 10 µM was 97%.
`N#Cc1ccc(N2CCC(C(=O)Nc3ccc(N4CCC(CN5CCN(C6CCN(c7ccc8c(c7)C(=O)N(C7CCC(=O)NC7=O)C8=O)CC6)CC5)CC4)cn3)CC2)cc1Cl` (stereo not shown) [Example 71, 1-(3-chloro-4-cyanophenyl)-N-(5-(4-((4-(1-(2-(2,6-dioxopiperidin-3-yl)-1,3-dioxoisoindolin-5-yl)piperidin-4-yl)piperazin-1-yl)methyl)piperidin-1-yl)pyridin-2-yl)piperidine-4-carboxamide] gave an inhibition at 0.01 µM of 75%, an inhibition at 0.1 µM of 97%, an inhibition at 1 µM of 98% and an inhibition at 10 µM of 98%.
As for `N#Cc1ccc(N2CCC(F)(C(=O)Nc3ccc(N4CCC(CN5CCN(C6CCN(c7ccc8c(c7)C(=O)N(C7CCC(=O)NC7=O)C8=O)CC6)CC5)CC4)cn3)CC2)cc1C(F)(F)F` (stereo not shown) [Example 72, 1-(4-cyano-3-(trifluoromethyl)phenyl)-N-(5-(4-((4-(1-(2-(2,6-dioxopiperidin-3-yl)-1,3-dioxoisoindolin-5-yl)piperidin-4-yl)piperazin-1-yl)methyl)piperidin-1-yl)pyridin-2-yl)-4-fluoropiperidine-4-carboxamide], the inhibition at 0.01 µM came out at 59%, 0.1 µM produced 94% inhibition and at 1 µM the inhibition was 97%.
For `N#Cc1ncc(N2CCC(C(=O)Nc3ccc(N4CCC(CN5CCN(C6CCN(c7ccc8c(c7)C(=O)N(C7CCC(=O)NC7=O)C8=O)CC6)CC5)CC4)cn3)CC2)cc1C(F)(F)F` (stereo not shown) [Example 73, 1-(6-cyano-5-(trifluoromethyl)pyridin-3-yl)-N-(5-(4-((4-(1-(2-(2,6-dioxopiperidin-3-yl)-1,3-dioxoisoindolin-5-yl)piperidin-4-yl)piperazin-1-yl)methyl)piperidin-1-yl)pyridin-2-yl)piperidine-4-carboxamide], the inhibition at 0.01 µM was determined as 55%, testing at 0.1 µM gave an inhibition of 88% and testing at 1 µM gave an inhibition of 92%.
`N#Cc1ncc(N2CCC(F)(C(=O)Nc3ccc(N4CCC(CN5CCN(C6CCN(c7ccc8c(c7)C(=O)N(C7CCC(=O)NC7=O)C8=O)CC6)CC5)CC4)cn3)CC2)cc1C(F)(F)F` (stereo not shown) [Example 74, 1-(6-cyano-5-(trifluoromethyl)pyridin-3-yl)-N-(5-(4-((4-(1-(2-(2,6-dioxopiperidin-3-yl)-1,3-dioxoisoindolin-5-yl)piperidin-4-yl)piperazin-1-yl)methyl)piperidin-1-yl)pyridin-2-yl)-4-fluoropiperidine-4-carboxamide] came in with an inhibition at 0.01 µM of 20%, an inhibition at 0.1 µM of 66% and an inhibition at 1 µM of 83%.
For `N#Cc1ccc(N2CCC(C(=O)Nc3ccc(N4CCC(CN5CCN(C6CCN(c7ccc8c(n7)CN(C7CCC(=O)NC7=O)C8=O)CC6)CC5)CC4)cn3)CC2)cc1C(F)(F)F` (stereo not shown) [Example 75, 1-(4-cyano-3-(trifluoromethyl)phenyl)-N-(5-(4-((4-(1-(6-(2,6-dioxopiperidin-3-yl)-5-oxo-6,7-dihydro-5H-pyrrolo[3,4-b]pyridin-2-yl)piperidin-4-yl)piperazin-1-yl)methyl)piperidin-1-yl)pyridin-2-yl)piperidine-4-carboxamide] the same measures were 82%, 97% and 90%.

These data come from patent US12122763B2, “Substituted piperidines for androgen receptor degradation” (UBIX THERAPEUTICS, INC., priority 2020, dated 2024).
